# Publication PMC5555576, “Selective small-chemical inhibitors of protein arginine methyltransferase 5 with anti-lung cancer activity” (PLoS ONE, 2017)
# “And” between values parts separate entries of the source, which are not always exact repeats. Equal entries are not always repeated. Where two headings read alike, the source gives them in different places.
# What was measured:
# [1] = system: CDK4/6 (Rb pS811) in A549 cells; assay: Western blot of Rb phosphorylation at S811; type: cell-based; settings: 20 μM, 4 h
# Excerpt: The retinoblastoma protein (Rb) is phosphorylated by CKDs in cells.
# (TIF) Click here for additional data file.
# PRMT5 [2] = settings: cited from earlier work; for selectivity for PRMT5: versus PRMT1, CARM1, or PRMT7
# PRMT5 [3] = target: T1, PRMT5 (Homo sapiens, UniProt O14744); assay: Radioactive methyltransferase assay, PRMT5; type: biochemical; settings: methylation of SmD3 by PRMT5; Table 1 prints no unit, μM; read-out: IC50
# T1 construct: His6; made in house; host or cells: E. coli BL21(ED3) [sic]
# Description: (§1) Methylation reactions were performed as previously described with a few modifications. Reaction mixtures (40 μl) containing 1.2 μg of PRMT5, 98 ng of PRMT1 or 98 ng of PRMT3; 2 μg of SmD3 or histones; 1 μCi of S-[methyl-^3H]adenosylmethionine (H^3-AdoMet; PerkinElmer); and 5 μM AdoMet were incubated in 50 mM Tris-HCl (pH 7.5)–1 mM EGTA–1 mM EDTA at 30°C for 2 h. Reaction mixtures (20 μl) were boiled in 5 μl of 5x SDS sample buffer and separated on a 15% polyacrylamide gel. Gels were fixed for 30 min in 40% methanol–10% acetic acid, incubated in 20 ml of Amplify (Amersham Life Science) for 10 min, dried and exposed to X-ray film at -80°C. IC50 was calculated by linear regression analysis of percent inhibition. The other half (20 μl) of each reaction mixture was spread onto DE81 chromatography paper discs (Whatman). The paper discs were washed 4 times with 50 mM NaHCO3 and dried. The amounts of methylated products were quantified by liquid scintillation.
# In vitro methylation reactions were performed with recombinant PRMT5 (1.2 μg), PRMT1 ([…]) or PRMT3 (89 ng); [H^3]-AdoMet; and different substrates in the presence of identified compounds. […] The recombinant SmD3 (2 μg) was used as the substrate in the absence (lane 2) or presence of 1, 10 or 100 μM compounds as indicated. Reaction mixtures were separated on an SDS–15% polyacrylamide gel and the gel was dried under vacuum and exposed to film. […] Recombinant histones H4 or H2A (1 μg) were used as substrates of PRMT5 in the methylation assay in the absence or presence of 100 μM compounds as indicated. Reaction mixtures were spread onto DE81 chromatography paper discs. After a wash, the amounts of methylated products on discs were quantified by liquid scintillation. […] PRMT1 was incubated with purified histones (1 μg) or recombinant E2F1 (1 μg) as substrates in the absence (lane 2) or presence of 100 μM compounds as indicated. Reaction mixtures were separated on an SDS–15% polyacrylamide gel and the gel was dried and exposed to film.
# A549 cells = assay: Cellular permeability and stability by HPLC of cell extracts; type: in vitro ADME; settings: 2 hr in medium with compound
# Description: Waters 2695 HPLC System and a C18 column (Symmetry, 3.6 x 75 mm) were used. The column was equilibrated with 10% acetonitrile and eluated with a linear gradient from 10% acetonitrile to 100% acetonitrile in 60 min. Compounds were dissolved in 10% acetonitrile and the purchased compounds (ChemBridge) were used as the standards.
# We then determined whether the identified compounds are cell-permeable. Lung cancer A549 cells were cultured in medium containing various concentrations of the respective compound for 2 hr. Cells were harvested and washed with PBS. The compounds were extracted with ethyl acetate from cells and analyzed by HPLC with a C18 column using the purchased compound as the standard. Compounds C2, C5, C9 and C11 are cell-permeable (Fig 6A), which is consistent with their tPSAs <140 angstroms square (Table 1). […] We even noticed that the compound C5 crystalized inside the cells.
# A, The cellular permeability of identified compounds. Lung cancer A549 cells were cultured in the presence of various concentrations of compounds for 2h and the compound concentrations in the cell were determined by HPLC chromatography with a C18 column. B, The cellular stability of identified compounds. Lung cancer A549 cells were cultured in the presence of compounds (20 μM) for 2 h and then the medium was removed. Cells were washed with the medium and cultured for additional 5 or 10 h after the compounds were removed. The compound concentrations in the cell were determined by HPLC chromatography with a C18 column. […] A549 cells were grown in the presence of DMSO or compound C5, C9 or C11 (20 μM). Histones were purified and analyzed by SDS-PAGE stained with Commassie blue (lanes 1–4, bottom) or by Western blot with anti-symmetric dimethyl arginine antibody (SYM10) (lanes 1–4, top). B-Raf was immunoprecipitated with anti-B-Raf antibody from whole cell lysates and submitted for Western blot analysis with anti-B-Raf (lanes 5 and 6, bottom) or anti-symmetric dimethyl arginine (lanes 5 and 6, top) antibody.
# PRMT5 F225M [4] = target: T2, PRMT5 F225M (Homo sapiens, UniProt O14744, F327M); assay: Radioactive methyltransferase assay, mutant PRMT5; type: biochemical; settings: F225M mutant PRMT5, SmD3 substrate, Fig 4D
# T2 construct: His6; made in house; host or cells: bacteria (E. coli BL21(ED3) for the wild type)
# Description: as §1
# (§2) The inhibitory activity of the compounds may stem from this interaction. To test this possibility, we conducted site-directed mutagenesis to mutate Phe225 in human PRMT5 (corresponding to Phe379 in the C. elegans PRMT5) to Met. The mutated PRMT5 was expressed in bacteria and purified by Ni-nitrilotriacetic acid (Ni-NTA) affinity chromatography (Fig 4A). The activity of the mutant PRMT5 was examined by the radioactive methyltransferase assay. […] The IC50 values for the mutant PRMT5 increased from 4.3 to 183 folds higher than those for the wild type PRMT5 (Fig 4D). […] The results also can help explain the specificity of the compounds to PRMT5. However, the contribution of this interaction to inhibition varies among the compounds. For example, compound C2 interacts with three amino acid residues (Lys451, Glu450, and Phe379) (Fig 3A) with the mutation of Phe to Met resulting in a 50-times higher IC50 (Fig 4C and 4D).
# (§3) Fig 4 The conserved phenylalanine residue in PRMT5 is critical for inhibition by the five compounds. A, DS-PAGE of recombinant wild type (WT) and F225M mutant (MT) PRMT5. The gel was stained with Coomassie Brilliant Blue R250. A band corresponding to an unknown bacterial protein is indicated (star). B, The F225M mutation increased the methytransferase activity of PRMT5. In vitro methylation reactions were performed with recombinant wild type (lanes 2–4) or mutant (lanes 5–7) PRMT5 (1.2, 2.4 or 4.8 μg) and SmD3 (2 μg) as the substrate. C, The F225M mutation in PRMT5 decreased inhibition of arginine methylation by the compounds. The reaction mixture contained SmD3 (2 μg); wild type or mutant PRMT5 (1.2 μg); and 1, 10 or 100 μM compounds as indicated. D, The F225M mutation in PRMT5 […] of the compounds, as determined by quantitation and analysis of methylation assay results. TEXT PRINTED IN THE PICTURE: (D) C2: IC50 (μM) PRMT5: 0.1; IC50 (μM) PRMT5 F225M: 5.0 | (D) C5: IC50 (μM) PRMT5: 0.8; IC50 (μM) PRMT5 F225M: 3.5 | (D) C6: IC50 (μM) PRMT5: 0.5; IC50 (μM) PRMT5 F225M: 7.0 | (D) C9: IC50 (μM) PRMT5: 6.0; IC50 (μM) PRMT5 F225M: 45.0 | (D) C11: IC50 (μM) PRMT5: 0.3; IC50 (μM) PRMT5 F225M: 55.0
# [5] = system: PRMT5-target genes in A549 cells; assay: Real-time PCR of PRMT5-regulated genes; type: cell-based; settings: 50 μM, 24 hrs
# Description: We identified a set of genes whose expression was altered by silencing PRMT5 expression in lung cancer A549 cells. A549 cells were treated with C9a and EPZ015666 and expression of 6 identified PRMT5-regulated genes was analyzed. […] The future study would use genome-wide approach to determine genes whose expression is affected by PRMT5 inhibitors.
# Supplementary file pone.0181601.s005.tif: S5 Fig PRMT5 inhibitors selectively affect PRMT5-target genes in lung cancer cells. RNAs were isolated from cells cultured in the presence of DMSO, EPZ015666 (Sigma-Aldrich) (50 μM), or C9a (50 μM) for 24 hrs and submitted to RT-RCR analysis of gene expression in cancer cell lines. Relative mRNA levels = mRNA in cells treated with PRMT5-inhibtor/mRNA in DMSo-treated cells. (TIF) Click here for additional data file.
# MCL xenograft models = system: MCL xenograft models; parameters: method as in PMID 25915199; settings: cited from earlier work
# PRMT5 F225M [6] = assay: Radioactive methyltransferase assay, mutant PRMT5; type: biochemical, human; settings: Phe225 to Met
# Description: as §1, §2, §3
# PRMT5 [7] = target: T1, PRMT5; assay: Steady-state kinetic analysis of PRMT5 inhibition (time-dependent inhibition assay); type: biochemical
# Description: Different amounts of compound C2 or C5 were present in the final methylation reaction mixtures with 1.2 μg of PRMT5, 5 μM AdoMet, 2 μCi of H^3-AdoMet and various concentrations of SmD3. After a 10-, 20- or 30-min incubation at 30 °C or no incubation, the reaction mixtures were spread onto DE81 chromatography paper discs and the amounts of methylated products were quantified by liquid scintillation. Amounts (counts per minute [cpm]) of methylated products and incubation time (minutes) were plotted and reaction velocity (cpm per minute) was deduced.
# To understand the mechanism of inhibition of identified compounds, we analyzed the kinetic pattern of inhibition using steady-state enzymatic measurements. The velocities of PRMT5 methylation of SmD3 were measured at several selected concentrations of compounds C2 and C5 over a range of SmD3 concentrations. Plotted in the double-reciprocal format with 1/velocity versus 1/[SmD3]
# Fig 5 Steady-state kinetic analysis of PRMT5 inhibition by compounds C2 and C5. Double-reciprocal plot of reaction velocities (cpm per minute) versus concentrations of SmD3. Methylation reaction mixtures contained various concentrations of C2 (left) or C5 (right), various concentrations of SmD3, 1.2 μg of PRMT5 and 5 μM AdoMet. The mixtures were incubated for different times and the amounts of methylated products were quantified using DE81 paper and liquid scintillation. Reaction velocity was calculated as H^3 incorporation (cpm) into SmD3 per minute.
# [8] = single replicate, vs control, actin-normalised, listed as EPZ
# T1 sequence (O14744 whole entry): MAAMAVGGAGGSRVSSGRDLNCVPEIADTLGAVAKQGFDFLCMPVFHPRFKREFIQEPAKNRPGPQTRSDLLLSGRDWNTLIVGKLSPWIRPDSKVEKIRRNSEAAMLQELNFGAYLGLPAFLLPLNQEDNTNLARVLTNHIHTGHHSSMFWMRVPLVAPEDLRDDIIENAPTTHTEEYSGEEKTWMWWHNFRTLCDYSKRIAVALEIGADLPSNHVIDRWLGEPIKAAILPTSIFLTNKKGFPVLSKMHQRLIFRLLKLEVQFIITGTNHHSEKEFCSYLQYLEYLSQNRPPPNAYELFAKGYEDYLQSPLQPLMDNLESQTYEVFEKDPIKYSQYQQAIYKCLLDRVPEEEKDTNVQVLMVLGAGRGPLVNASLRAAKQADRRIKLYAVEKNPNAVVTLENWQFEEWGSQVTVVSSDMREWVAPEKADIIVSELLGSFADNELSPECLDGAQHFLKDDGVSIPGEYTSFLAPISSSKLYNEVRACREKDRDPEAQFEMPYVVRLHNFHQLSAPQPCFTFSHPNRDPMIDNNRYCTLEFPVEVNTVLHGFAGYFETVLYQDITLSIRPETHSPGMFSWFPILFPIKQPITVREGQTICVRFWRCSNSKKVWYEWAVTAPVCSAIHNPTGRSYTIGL
# T2 sequence (O14744 whole entry F327M): as the sequence (O14744 whole entry) above, with F327M counted along it
structure (smiles),measurement,setting,value
"CC(=O)c1c(C)c2cnc(Nc3ccc(N4CCNCC4)cn3)nc2n(C2CCCC2)c1=O [Palbociclib, reference compound]",Rb phosphorylation at the site S811 by CDK4/6,[1],inhibited
CCn1c2ccccc2c2cc(CNCc3ccccn3)ccc21 [CMP5],selectivity for PRMT5,PRMT5 [2],"specifically inhibited PRMT5 rather than PRMT1, CARM1, or PRMT7"
O=C(Nc1nccs1)c1ccc(COc2ccc(F)cc2)o1 [Compound C7],IC50,PRMT5 [3],2.5 µM
CCNC(=O)NCCSC[C@H]1O[C@@H](n2cnc3c(N)ncnc32)[C@H](O)[C@@H]1O [DS-437],IC50,"PRMT5 [2]; AdoMet competitor, cofactor-binding site",6000 nM
CCc1ccc(-c2cn3c4ccccc4nc3n2CCN2CCOCC2)cc1 [Compound C6],cell permeability,A549 cells,not cell-permeable
same,IC50,PRMT5 [3],0.5 µM
same,IC50,PRMT5 F225M [4],7 µM
Nc1c(C(=O)Nc2ccccc2)sc2nc3c(cc12)CCC3 [Compound C4],IC50,PRMT5 [3],0.6 µM
"O=C(NC[C@H](O)CN1CCc2ccccc2C1)c1cc(NC2COC2)ncn1 [EPZ015666, reference compound]",IC50,PRMT5 [2],[…]
same,antitumor activity,MCL xenograft models,demonstrated antitumor activity in multiple MCL xenograft models
CCn1c2ccccc2c2cc(CNCc3ccccc3OC)ccc21.Cl [HLCL-61],selectivity for PRMT5,PRMT5 [2],"specifically inhibited PRMT5 rather than PRMT1, CARM1, or PRMT7"
COc1nc(Nc2ccc(-c3nc4ccccc4o3)cc2)nc(OC)n1 [Compound C1],IC50,PRMT5 [3],0.5 µM
Cc1ccnc(NC(=O)c2ccc(COc3ccc(Cl)cc3)o2)c1 [Compound C2],cell permeability,A549 cells,cell-permeable
same,IC50,PRMT5 [3],0.1 µM
same,IC50,PRMT5 F225M [4],5 µM
same,increase of IC50 for mutant PRMT5 over wild type PRMT5,PRMT5 F225M [6],50 fold
same,mode of inhibition with regard to SAM,PRMT5 [7],not competitive inhibitors
same,mode of inhibition with regard to the SmD3 substrate,PRMT5 [7]; double-reciprocal plot,competitive inhibitors
